These results are taken from patent publication US9371527B2, “Compositions and methods related to protein displacement therapy for myotonic distrophy” (University of Rochester, priority 2006, dated 2016).

Entries after “also recorded” stand apart in the source; their conditions may differ.

For series [1], the system named is Titin, ZASP, Serca1 alternative splicing. The series can be described thus: RT-PCR of alternative splicing of other genes misregulated in DM1 after ClC-1 antisense morpholino. The settings on record: HSA^LR TA muscle. The series is classed as in vivo, HSA^LR mice. The source says: HSA^LR and WT mice have the same (FVB) inbred strain background. […] FIGS. 25D and 25E show the percentage of ClC-1 splice products that include exon 7a is shown at 3 (D) and 8 (E) weeks following morpholino injection. Mean±s.d.; n=3 per group; **P<0.001; *P=0.035 antisense- versus invert-treated controls; t-test. […] ClC-1 mRNA level is expressed in arbitrary units relative to housekeeping gene RNA polymerase II transcription factor IIB. Mean±s.d.; n=3 per group; *P=0.06 for antisense vs invert-treated control; t-test.
Mice were sacrificed three or eight weeks after morpholino injection. TA muscles were removed and frozen in liquid nitrogen. Total RNA was isolated with TriReagent (Molecular Research Center). cDNA synthesis was primed with oligo dT as described previously (Mankodi, A., et al. (2002) Mol Cell 10:35-44). Assays for alternative splicing of ClC-1 and Titin were described previously (Mankodi, A., et al. (2002) Mol Cell 10:35-44; Lin, X., et al. (2006) Hum Mol Genet 15:2087-2097). Primer sequences were
RT-PCR products (22 cycles) were separated on agarose gels, stained with SYBR green II, and scanned on a laser fluorimager (Molecular Dynamics). Band intensity was quantified using ImageQuant software. Total levels of ClC-1 mRNA were determined by quantitative real-time RT-PCR (Taqman, Applied Biosystems) relative to housekeeping gene RNA polymerase II transcription factor IIB.

The next series has as its system HSA^LR mice. The series can be described thus: Electromyography of myotonia after ClC-1 antisense morpholino, HSA^LR mice. The series is classed as in vivo. The settings on record: TA muscle. On the procedure:
FIGS. 21A, 21B, 21C, and 21D show the effects of antisense morpholino targeting the 3′ splice junction of ClC-1 exon 7a on splicing and myotonia in HSA^LR transgenic mice. Antisense morpholino targeting the 3′ splice junction of ClC-1 exon 7a was injected into tibialis anterior muscle of HSA^LR mice under general anesthesia (sequence 5′-[…]-3′ (SEQ ID NO: 4)). The contralateral muscle was injected with morpholino having the inverted sequence (5′-[…]-3′(SEQ ID NO: 5)). Uptake into muscle fibers was enhanced by in vivo electroporation. The determination of which side received the antisense morpholino was randomized. […] Electromyography was blinded to the randomization.
HSA^LR (Mankodi, A., et al. (2000) Science 289:1769-1773) or Mbnl1^ΔE3/ΔE3 mice (Kanadia, R. N., et al. (2003) Science 302:1978-1980) were anesthetized by intraperitoneal injection of 100 mg/kg ketamine, 10 mg/kg xylazine, and 3 mg/kg acepromazine. TA muscle was pretreated by intramuscular injection of bovine hyaluronidase (15 μl, 0.4 U/μl) (Sigma) (McMahon, J. M., et al. (2001) Gene Ther 8:1264-1270). Two hours later, 10 or 20 μg of morpholino in a total volume of 20 μl phosphate buffered saline (PBS) was injected using a 30-gauge needle. TA muscle was then electroporated using electrodes placed parallel to the long axis of the muscle. Electroporation parameters were 100 V/cm, 10 pulses at 1 Hz, and 20 ms duration per pulse. Antisense or control morpholino with inverted sequence was injected into TA muscles of opposite limbs. The determination of which TA received antisense morpholino was randomized, and investigators remained blinded to this assignment until EMG analyses were completed. Other analyses were performed without blinding. For experiments to determine the distribution of injected oligos, the antisense morpholino was labeled with carboxyfluorescein and cryosections of muscle (10 μM) were examined by fluorescence microscopy, with or without fixation in 4% paraformaldehyde. Some sections were co-labeled with TRITC-wheat germ agglutinin (Parsons, S. A., et al. (2003) Mol Cell Biol 23:4331-4343) (50 μg/ml in PBS; Sigma) and 4′,6-diamidino-2-phenylindole (DAPI) to highlight the surface membranes and nuclei of muscle fibers.
EMG was performed under general anesthesia as described previously (Kanadia, R. N., et al. (2003) Science 302:1978-1980). Images and video recordings of electromyographic myotonia in HSA^LR and Mbnl1^ΔE3/ΔE3 mice are shown in previous reports (Kanadia, R. N., et al. (2003) Science 302:1978-1980; Mankodi, A., et al. (2000) Science 289:1769-1773). […]

In series [2] the test system is nuclear foci containing CUG^exp RNA and MBNL1 protein. The series can be described thus: FISH and immunofluorescence of ribonuclear inclusions after ClC-1 antisense morpholino. The following applies: TA muscle, 3 weeks after injection; listed as antisense morpholino. The series is classed as in vivo, HSA^LR mice.
The next series has as its system ClC-1 exon 7a. In words: RT-PCR of ClC-1 exon 7a splicing after antisense morpholino, Mbnl1^ΔE3/ΔE3 mice. It counts as in vivo. The following applies: TA muscle, 3 weeks, 20 μg. On the procedure: (§1) FIGS. 27A, 27B, 27C, 27D, and 27E show antisense morpholino represses exon 7a inclusion, restores ClC-1 protein expression, and rescues myotonia in Mbnl1^ΔE3/ΔE3 mice. […] Bar=20 μM. […] Mean±s.d.; n=3 per group; **P<0.0001 antisense- versus invert-treated control; ANOVA.
To examine the effects of AON in this model, antisense morpholino or invert control was injected into TA muscle of Mbnl1^ΔE3/ΔE3 mice.
HSA^LR (Mankodi, A., et al. (2000) Science 289:1769-1773) or Mbnl1^ΔE3/ΔE3 mice (Kanadia, R. N., et al. (2003) Science 302:1978-1980) were anesthetized by intraperitoneal injection of 100 mg/kg ketamine, 10 mg/kg xylazine, and 3 mg/kg acepromazine. TA muscle was pretreated by intramuscular injection of bovine hyaluronidase (15 μl, 0.4 U/μl) (Sigma) (McMahon, J. M., et al. (2001) Gene Ther 8:1264-1270). Two hours later, 10 or 20 μg of morpholino in a total volume of 20 μl phosphate buffered saline (PBS) was injected using a 30-gauge needle. TA muscle was then electroporated using electrodes placed parallel to the long axis of the muscle. Electroporation parameters were 100 V/cm, 10 pulses at 1 Hz, and 20 ms duration per pulse. […] For experiments to determine the distribution of injected oligos, the antisense morpholino was labeled with carboxyfluorescein and cryosections of muscle (10 μM) were examined by fluorescence microscopy, with or without fixation in 4% paraformaldehyde. […]

Another series has as its system ClC-1 protein. The series can be described thus: ClC-1 immunofluorescence, Mbnl1^ΔE3/ΔE3 mice. It counts as in vivo. The following applies: TA muscle, 3 weeks; listed as antisense morpholino. On the procedure:
as §1
Frozen transverse sections of TA muscle (10 μM) were stained with affinity-purified rabbit polyclonal anti-ClC-1 antibody (1:50; Alpha Diagnostic International) as previously described (Kanadia, R. N., et al. (2006) Proc Natl Acad Sci USA 103:11748-11753). Muscle sections from ClC-1 null mice and WT FVB mice served as negative and positive controls on each slide. Z-plane stacks consisting of 8 images separated by 0.25 μM were captured and deconvolved using Autoquant v9.3 software (Autoquant Imaging). Maximum-projection images were obtained using Metavue software (Universal Imaging Corporation). Exposure time and thresholding were identical for all comparisons of antisense vs. invert controls.

As to “antisense 1: morpholino 5′-CCAGGCACGGTCTGCAACAGAGAAG-3′ targeting the 3′ splice site of ClC-1 exon 7a (all phosphorodiamidate morpholino (PMO))”, the “alternative splicing of Serca1” value in series [1] is listed as “nor did it correct the alternative splicing”. Further, in series [1], the “alternative splicing of ZASP” value was “nor did it correct the alternative splicing”. Moreover, the figures for the “alternative splicing of Titin m-line exon 5” value in series [1] (listed as ClC-1 antisense morpholino) and in series [1] (listed as antisense morpholino) were “did not correct the misregulated alternative splicing of Titin m-line exon 5” and “nor did it correct the alternative splicing”, respectively. For the same substance, the “myotonia (EMG)” value is recorded as “marked reduction of myotonia; also recorded: markedly reduced or absent; also recorded: significantly reduced” with HSA^LR mice (3 weeks (21 days) after injection, listed as antisense morpholino) and “markedly reduced or absent; also recorded: significantly reduced” in the series with HSA^LR mice (8 weeks after injection, listed as antisense morpholino). The “formation of ribonuclear inclusions (CUG^exp RNA and MBNL1 foci)” value in series [2] was “did not affect the formation of nuclear foci; also recorded: no effect on the formation of ribonuclear inclusions”. Further, the “ClC-1 exon 7a inclusion” value with ClC-1 exon 7a (listed as antisense morpholino) is listed as “repressed the inclusion of exon 7a”; with ClC-1 exon 7a (listed as antisense morpholino 1), “reduced inclusion of exon 7a”. In addition, in the series on ClC-1 protein, the “ClC-1 protein at the sarcolemma (immunofluorescence)” value is given as “increased the expression of ClC-1 protein at the sarcolemma”.

As to “control morpholino: control morpholino 5′-GAAGAGACAACGTCTGGCACGGACC-3′, the 5′-3′ invert of the 3′ splice site blocker (all phosphorodiamidate morpholino (PMO)) [reference compound]”, the “myotonia (EMG)” value in the series on HSA^LR mice (3 weeks (21 days) after injection) and in the series on HSA^LR mice (8 weeks after injection) was “not different from uninjected muscle” throughout.
